From PubChem BioAssay AID330 (DTP/NCI, 2004)
“And” between values parts separate entries of the source, which are not always exact repeats. Equal entries are not always repeated. Toxic doses and inconclusive results are not listed.

Test system: P388 leukemia ip, CD2F1 mice, survival T/C
Assay: NCI In Vivo Anticancer Drug Screen. Data for tumor model P388 Leukemia (intraperitoneal) in CD2F1 (CDF1) mice
Conditions: endpoint: median survival time, higher = longer survival
How it was run: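 Mice carrying the transplanted tumor received test compound or vehicle. Survival was recorded in each group, and the value is the treated-group measurement divided by that of the vehicle-treated control group.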

[1] = dose: 100.0 mg/kg/injection, schedule: Q01DX001 (ip), vehicle: Klucel (hydroxypropylcellulose) (HPC)
[2] = dose: 50.0 mg/kg/injection, schedule: Q01DX009 (ip), vehicle: Klucel (hydroxypropylcellulose) (HPC)
[3] = dose: 100.0 mg/kg/injection, schedule: Q01DX009 (ip), vehicle: Klucel (hydroxypropylcellulose) (HPC)
[4] = dose: 200.0 mg/kg/injection, schedule: Q01DX009 (ip), vehicle: Klucel (hydroxypropylcellulose) (HPC)
[5] = dose: 50.0 mg/kg/injection, schedule: Q01DX009 (ip), vehicle: saline
[6] = dose: 100.0 mg/kg/injection, schedule: Q01DX009 (ip), vehicle: saline
[7] = dose: 50.0 mg/kg/injection, schedule: Q01DX009 (ip), vehicle: saline with Tween-80
[8] = dose: 100.0 mg/kg/injection, schedule: Q01DX009 (ip), vehicle: saline with Tween-80
[9] = dose: 200.0 mg/kg/injection, schedule: Q01DX009 (ip), vehicle: saline with Tween-80
[10] = dose: 6.25 mg/kg/injection, schedule: Q04DX003 (ip), vehicle: saline
[11] = dose: 12.5 mg/kg/injection, schedule: Q04DX003 (ip), vehicle: saline
[12] = dose: 25.0 mg/kg/injection, schedule: Q04DX003 (ip), vehicle: saline
[13] = dose: 50.0 mg/kg/injection, schedule: Q01DX005 (ip), vehicle: saline
[14] = dose: 100.0 mg/kg/injection, schedule: Q01DX005 (ip), vehicle: saline
[15] = dose: 200.0 mg/kg/injection, schedule: Q01DX005 (ip), vehicle: saline
[16] = dose: 25.0 mg/kg/injection, schedule: Q01DX009 (ip), vehicle: Klucel (hydroxypropylcellulose) (HPC)
[17] = dose: 50.0 mg/kg/injection, schedule: Q01DX005 (ip), vehicle: Klucel (hydroxypropylcellulose) (HPC)
[18] = dose: 100.0 mg/kg/injection, schedule: Q01DX005 (ip), vehicle: Klucel (hydroxypropylcellulose) (HPC)
[19] = dose: 25.0 mg/kg/injection, schedule: Q01DX005 (ip), vehicle: Klucel (hydroxypropylcellulose) (HPC)
[20] = dose: 200.0 mg/kg/injection, schedule: Q01DX005 (ip), vehicle: Klucel (hydroxypropylcellulose) (HPC)
[21] = dose: 60.0 mg/kg/injection, schedule: Q01DX005 (ip), vehicle: saline with Tween-80
[22] = dose: 120.0 mg/kg/injection, schedule: Q01DX005 (ip), vehicle: saline with Tween-80
[23] = dose: 240.0 mg/kg/injection, schedule: Q01DX005 (ip), vehicle: saline with Tween-80

With `COC(=O)[C@@]12OC[C@]34[C@H]([C@@H](O)[C@@H]1O)[C@@]1(C)C=C(OC5OC(CO)C(O)C(O)C5O)C(=O)[C@@H](C)[C@@H]1C[C@H]3OC(=O)[C@H](OC(=O)/C=C(\C)C(C)C)[C@@H]24` (some centres not stated) the T/C (dose: 2.0 mg/kg/injection, schedule: Q01DX005 (ip), vehicle: saline + alcohol) was 100 % of control, the T/C (dose: 4.0 mg/kg/injection, schedule: Q01DX005 (ip), vehicle: saline + alcohol) was 94 % of control and the T/C (dose: 8.0 mg/kg/injection, schedule: Q01DX005 (ip), vehicle: saline + alcohol) was 94 % of control. The T/C (dose: 16.0 mg/kg/injection, schedule: Q01DX005 (ip), vehicle: saline + alcohol) was 106 % of control, the T/C (dose: 32.0 mg/kg/injection, schedule: Q01DX005 (ip), vehicle: saline + alcohol) was 111 % of control and the T/C (dose: 64.0 mg/kg/injection, schedule: Q01DX005 (ip), vehicle: saline + alcohol) was 108 % of control.
`CC(C)Cc1nccs1.CC(C)Cc1nccs1.CC(C)Cc1nccs1.CC(C)Cc1nccs1.[Cl][Rh][Cl]` was tested, and the T/C (dose: 25.0 mg/kg/injection, schedule: Q01DX001 (ip), vehicle: Klucel (hydroxypropylcellulose) (HPC)) was 108 % of control, the T/C (dose: 50.0 mg/kg/injection, schedule: Q01DX001 (ip), vehicle: Klucel (hydroxypropylcellulose) (HPC)) was 100 % of control and the T/C [1] was 112 % of control.
In the case of `C=CCSc1ccc(Cl)cc1[N+](=O)[O-]`, the T/C [2] is reported as 101 % of control, the T/C [3] is reported as 100 % of control and the T/C [4] is reported as 100 % of control.
`C[CH2][GeH][CH2]C.C[CH2][Ge]([CH2]C)[CH2]C` was tested, and the T/C [5] was 93 % of control and the T/C [6] was 90 % of control.
With `C1SSCSSS1` the T/C [7] was 115 % of control, the T/C [8] was 117 % of control and the T/C [9] was 111 % of control.
For `O=C1C=C(C2OC(CI)C(O)C2O)C(=O)N1` (configuration not stated), the T/C (dose: 1.56 mg/kg/injection, schedule: Q01DX009 (ip), vehicle: water) was 113 % of control, the T/C (dose: 3.13 mg/kg/injection, schedule: Q01DX009 (ip), vehicle: water) was 112 % of control and the T/C (dose: 6.25 mg/kg/injection, schedule: Q01DX009 (ip), vehicle: water) was 118 % of control. The T/C (dose: 12.5 mg/kg/injection, schedule: Q01DX009 (ip), vehicle: water) was 109 % of control and the T/C (dose: 25.0 mg/kg/injection, schedule: Q01DX009 (ip), vehicle: water) was 118 % of control.
In the case of `COc1cc(/C=C2/CCC/C(=C\c3ccc(OCC(O)COc4ccc(C(C)(C)c5ccc(OCC6CO6)cc5)cc4)c(OC)c3)C2=O)ccc1OCC(O)COc1ccc(C(C)(C)c2ccc(OCC3CO3)cc2)cc1` (configuration not stated), the T/C [2] is reported as 96 % of control, the T/C [3] is reported as 97 % of control and the T/C [4] is reported as 95 % of control.
With `CC/C(=N\NC(N)=NC)c1ccc(Cl)cc1` the T/C (dose: 25.0 mg/kg/injection, schedule: Q04DX002 (ip), vehicle: saline) was 101 % of control.
`C1NNCC12CNNC2` was tested, and the T/C (dose: 100.0 mg/kg/injection, schedule: Q04DX003 (ip), vehicle: suspension in saline) was 94 % of control, the T/C (dose: 200.0 mg/kg/injection, schedule: Q04DX003 (ip), vehicle: suspension in saline) was 94 % of control and the T/C (dose: 400.0 mg/kg/injection, schedule: Q04DX003 (ip), vehicle: suspension in saline) was 90 % of control.
For `O=C(CC1(Cl)C(F)(F)C(F)(F)C1(F)F)c1ccccc1`, the T/C [10] was 100 % of control, the T/C [11] was 100 % of control and the T/C [12] was 100 % of control.
`Cc1ccc(-c2cnc3[nH]c(=O)[nH]c(=O)c3n2)cc1` was tested, and the T/C (dose: 100.0 mg/kg/injection, schedule: Q04DX002 (ip), vehicle: saline) was 97 % of control, the T/C (dose: 200.0 mg/kg/injection, schedule: Q04DX002 (ip), vehicle: saline) was 106 % of control and the T/C (dose: 400.0 mg/kg/injection, schedule: Q04DX002 (ip), vehicle: saline) was 91 % of control.
With `COC1NC(=O)N(C)N(C)C1=O` (configuration not stated) the T/C [13] was 100 % of control, the T/C [14] was 99 % of control and the T/C [15] was 100 % of control.
In the case of `Nc1nc(Sc2ccc([N+](=O)[O-])c3nonc23)c2[nH]cnc2n1`, the T/C (dose: 12.5 mg/kg/injection, schedule: Q01DX009 (ip), vehicle: Klucel (hydroxypropylcellulose) (HPC)) is reported as 115 % of control and the T/C [16] is reported as 88 % of control.
`O=C1CN(N2CCOCC2)CC(=O)N2CCCCN12` was tested, and the T/C [13] was 100 % of control, the T/C [14] was 109 % of control and the T/C [15] was 109 % of control.
For `COc1ccc(OC)c(C(O)P(=O)(c2ccccc2)c2ccccc2)c1` (configuration not stated), the T/C [2] was 98 % of control, the T/C [3] was 93 % of control and the T/C [4] was 93 % of control.
`CC(C)(C)N1CC1CN` (configuration not stated) was tested, and the T/C (dose: 25.0 mg/kg/injection, schedule: Q01DX009 (ip), vehicle: saline) was 100 % of control, the T/C [5] was 107 % of control and the T/C [6] was 105 % of control.
`COc1ccc2c(c1)C(=O)CC(COS(=O)(=O)c1ccc(C)cc1)C2` (configuration not stated) was tested, and the T/C [7] was 107 % of control, the T/C [8] was 101 % of control and the T/C [9] was 99 % of control.
In the case of `C=C(Cl)CC(N)C(=O)O` (configuration not stated), the T/C [17] is reported as 104 % of control and the T/C [18] is reported as 104 % of control.
In the case of `COc1ccc(/C=C/C(=O)c2ccccc(=O)c2O)cc1OC`, the T/C [19] is reported as 99 % of control, the T/C [17] is reported as 100 % of control and the T/C [18] is reported as 114 % of control. The T/C [20] was 113 % of control.
With `CCCCCCCN(CCCCCCC)CC(O)c1c(OC)c2ccccc2c2ccccc12` (configuration not stated) the T/C (dose: 25.0 mg/kg/injection, schedule: Q01DX009 (ip), vehicle: saline with Tween-80) was 89 % of control and the T/C [7] was 88 % of control.
With `Nc1nc(N)n2c(N)nnc2n1` the T/C [5] was 105 % of control, the T/C [6] was 107 % of control and the T/C (dose: 200.0 mg/kg/injection, schedule: Q01DX009 (ip), vehicle: saline) was 102 % of control.
In the case of `O=c1c2cc3ccccc3cc2c(=O)n2n1CC(O)C(Br)C2` (configuration not stated), the T/C (dose: 25.0 mg/kg/injection, schedule: Q01DX009 (ip), vehicle: DMSO) is reported as 101 % of control, the T/C (dose: 50.0 mg/kg/injection, schedule: Q01DX009 (ip), vehicle: DMSO) is reported as 105 % of control and the T/C (dose: 100.0 mg/kg/injection, schedule: Q01DX009 (ip), vehicle: DMSO) is reported as 105 % of control.
In the case of `CN(C)Cc1cc(C(=O)c2ccccc2)c(O)cc1O`, the T/C [16] is reported as 103 % of control and the T/C [2] is reported as 103 % of control.
In the case of `C/C=C/CCC(=O)CC(O)CCO` (configuration not stated), the T/C (dose: 12.5 mg/kg/injection, schedule: Q01DX005 (ip), vehicle: Klucel (hydroxypropylcellulose) (HPC)) is reported as 101 % of control, the T/C [19] is reported as 98 % of control and the T/C [17] is reported as 104 % of control and 89 % of control. For the same molecule, the T/C [18] was 104 % of control, the T/C [20] was 101 % of control and the T/C (dose: 400.0 mg/kg/injection, schedule: Q01DX005 (ip), vehicle: Klucel (hydroxypropylcellulose) (HPC)) was 111 % of control.
With `COc1cc2c(cc1OC)-c1cc(C)c3cc(OC)c(OC)cc3[n+]1CC2` the T/C (dose: 50.0 mg/kg/injection, schedule: Q01DX009 (ip), vehicle: water) was 111 % of control, the T/C (dose: 100.0 mg/kg/injection, schedule: Q01DX009 (ip), vehicle: water) was 110 % of control and the T/C (dose: 200.0 mg/kg/injection, schedule: Q01DX009 (ip), vehicle: water) was 117 % of control.
`Cc1c2cc[n+](CCO)cc2c(C)c2c1[nH]c1ccc(O)cc12` was tested, and the T/C (dose: 0.79 mg/kg/injection, schedule: Q04DX003 (ip), vehicle: saline) was 155 % of control, the T/C (dose: 1.56 mg/kg/injection, schedule: Q04DX003 (ip), vehicle: saline) was 165 % of control and the T/C (dose: 3.12 mg/kg/injection, schedule: Q04DX003 (ip), vehicle: saline) was 165 % of control. The T/C [10] was 155 % of control, the T/C [11] was 100 % of control and the T/C [12] was 92 % of control.
With `O=CNc1ccc(C(=O)O)c(O)c1` the T/C [21] was 98 % of control, the T/C [22] was 93 % of control and the T/C [23] was 90 % of control.
With `COC(=O)c1nnc(C(=O)OC)c2c1[nH]c1ccccc12` the T/C [21] was 96 % of control, the T/C [22] was 103 % of control and the T/C [23] was 94 % of control.
For `CCCCCCCCn1c(Cl)c(C(=O)O)c2ccccc21`, the T/C [1] was 95 % of control, the T/C (dose: 200.0 mg/kg/injection, schedule: Q01DX001 (ip), vehicle: Klucel (hydroxypropylcellulose) (HPC)) was 86 % of control and the T/C (dose: 400.0 mg/kg/injection, schedule: Q01DX001 (ip), vehicle: Klucel (hydroxypropylcellulose) (HPC)) was 86 % of control.
